Paper PMC7450057, “Enhancing intracellular accumulation and target engagement of PROTACs with reversible covalent chemistry” (Nature Communications, 2020)
Several values for one entry are separate records, joined by “and”; a condition that tells them apart may be missing. Identical values can stand only once.

What was measured:
[1] = target: T1, full-length BTK protein (Homo sapiens, UniProt Q06187); test: BTK binding assay (Kd, Eurofins DiscoverX)
T1 construct: Kd was measured using the full-length BTK protein by Eurofins DiscoverX; T7 phage fusion or DNA tag for qPCR (generic vendor protocol); purchased Eurofins DiscoverX
T1 sequence (Q06187 whole entry, the tested form may be a part): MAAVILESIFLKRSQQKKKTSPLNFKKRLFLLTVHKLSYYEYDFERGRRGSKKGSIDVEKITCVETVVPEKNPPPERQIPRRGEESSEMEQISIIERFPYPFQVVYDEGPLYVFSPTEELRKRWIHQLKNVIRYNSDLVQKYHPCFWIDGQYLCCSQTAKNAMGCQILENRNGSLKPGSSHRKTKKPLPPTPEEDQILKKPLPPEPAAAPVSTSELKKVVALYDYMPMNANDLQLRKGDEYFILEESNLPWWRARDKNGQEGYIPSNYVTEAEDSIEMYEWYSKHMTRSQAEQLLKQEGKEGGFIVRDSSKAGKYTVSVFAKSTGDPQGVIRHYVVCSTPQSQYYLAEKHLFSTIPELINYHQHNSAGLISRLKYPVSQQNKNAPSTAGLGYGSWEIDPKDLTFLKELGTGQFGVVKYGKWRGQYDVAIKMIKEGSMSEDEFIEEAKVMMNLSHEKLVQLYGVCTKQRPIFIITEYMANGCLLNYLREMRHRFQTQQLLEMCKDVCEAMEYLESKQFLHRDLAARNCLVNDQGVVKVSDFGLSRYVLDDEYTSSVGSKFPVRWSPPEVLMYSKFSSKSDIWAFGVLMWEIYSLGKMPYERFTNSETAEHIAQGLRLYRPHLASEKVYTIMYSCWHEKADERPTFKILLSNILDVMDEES
Description: The dissociation equilibrium constant Kd was measured using the full-length BTK protein by Eurofins DiscoverX according to the following protocol: kinase-tagged T7 phage strains were prepared in an E. coli host derived from the BL21 strain. E. coli were grown to log-phase and infected with T7 phage and incubated with shaking at 32 °C until lysis. The lysates were centrifuged and filtered to remove cell debris. The remaining kinases were produced in HEK-293 cells and subsequently tagged with DNA for qPCR detection. […] The liganded beads were blocked with excess biotin and washed with blocking buffer (SeaBlock (Pierce), 1% BSA, 0.05% Tween 20, 1 mM DTT) to remove unbound ligand and to reduce non-specific binding. […] Test compounds were prepared as 111X stocks in 100% DMSO. […] The compounds were then diluted directly into the assays such that the final concentration of DMSO was 0.9%. All reactions performed in polypropylene 384-well plate. Each was a final volume of 0.02 mL. […] The kinase concentration in the eluates was measured by qPCR. For kinase-binding constant determination, an 11-point 3-fold serial dilution of each test compound was prepared in 100% DMSO at 100x final test concentration and subsequently diluted to 1x in the assay (final DMSO concentration = 1%). […] Binding constants (Kd values) were calculated with a standard dose-response curve using the Hill equation: Response=Background+Signal−Background/1+KdHillSlope/Dose^HillSlope
The Hill Slope was set to −1. Curves were fitted using a non-linear least square fit with the Levenberg-Marquardt algorithm.

[2] = target: T2, NanoLuc-CRBN fusion (Homo sapiens, UniProt Q96SW2); test: NanoBRET CRBN in-cell target engagement assay; type: cell-based; details: for NanoBRET(%): Figure 3b
T2 construct: host or cells: HEK 293T/17
T2 sequence (Q96SW2 whole entry, the tested form may be a part): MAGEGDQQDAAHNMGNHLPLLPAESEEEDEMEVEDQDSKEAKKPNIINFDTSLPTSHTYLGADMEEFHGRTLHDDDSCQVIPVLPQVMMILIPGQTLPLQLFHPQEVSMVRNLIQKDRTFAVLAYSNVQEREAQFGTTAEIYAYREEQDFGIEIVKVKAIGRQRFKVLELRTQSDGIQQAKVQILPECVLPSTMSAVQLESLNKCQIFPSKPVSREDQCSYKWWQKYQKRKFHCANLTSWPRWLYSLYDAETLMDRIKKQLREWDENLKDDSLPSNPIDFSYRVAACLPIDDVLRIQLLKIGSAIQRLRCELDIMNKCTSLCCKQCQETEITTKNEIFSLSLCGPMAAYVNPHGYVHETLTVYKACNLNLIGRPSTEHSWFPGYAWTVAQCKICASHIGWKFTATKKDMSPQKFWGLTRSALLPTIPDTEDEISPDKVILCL
T2 sequence (Q16531 whole entry partner, the tested form may be a part): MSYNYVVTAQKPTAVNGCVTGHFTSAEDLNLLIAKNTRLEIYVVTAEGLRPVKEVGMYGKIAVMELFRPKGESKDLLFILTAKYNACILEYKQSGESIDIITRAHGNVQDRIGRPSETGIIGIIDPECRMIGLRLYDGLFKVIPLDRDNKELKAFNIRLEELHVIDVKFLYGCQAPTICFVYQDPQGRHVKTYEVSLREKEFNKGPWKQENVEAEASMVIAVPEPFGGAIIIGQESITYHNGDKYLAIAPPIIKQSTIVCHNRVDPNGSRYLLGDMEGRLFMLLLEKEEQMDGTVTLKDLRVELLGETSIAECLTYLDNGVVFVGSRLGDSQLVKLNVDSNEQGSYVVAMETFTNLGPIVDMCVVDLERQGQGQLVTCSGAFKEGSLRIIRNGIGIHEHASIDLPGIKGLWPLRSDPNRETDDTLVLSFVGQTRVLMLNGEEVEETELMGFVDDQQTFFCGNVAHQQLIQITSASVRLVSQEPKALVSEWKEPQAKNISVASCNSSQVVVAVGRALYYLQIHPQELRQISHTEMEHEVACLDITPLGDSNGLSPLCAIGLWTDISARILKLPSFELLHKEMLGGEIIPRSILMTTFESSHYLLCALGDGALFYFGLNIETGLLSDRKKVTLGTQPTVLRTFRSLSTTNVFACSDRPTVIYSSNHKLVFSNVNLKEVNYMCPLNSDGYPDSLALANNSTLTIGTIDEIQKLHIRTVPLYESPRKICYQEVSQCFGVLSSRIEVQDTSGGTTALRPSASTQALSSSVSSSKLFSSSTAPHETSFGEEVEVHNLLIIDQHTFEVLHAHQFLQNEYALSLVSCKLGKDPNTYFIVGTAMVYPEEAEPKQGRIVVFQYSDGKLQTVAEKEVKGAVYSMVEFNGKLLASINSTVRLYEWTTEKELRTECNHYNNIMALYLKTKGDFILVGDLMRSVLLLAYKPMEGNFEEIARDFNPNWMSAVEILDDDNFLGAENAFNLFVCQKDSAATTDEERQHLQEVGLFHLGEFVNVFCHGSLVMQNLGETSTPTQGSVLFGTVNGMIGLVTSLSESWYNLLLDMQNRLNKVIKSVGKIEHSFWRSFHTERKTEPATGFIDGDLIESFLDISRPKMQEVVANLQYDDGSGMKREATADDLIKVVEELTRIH
Summary of the method: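 Live cells expressing NanoLuc-CRBN with tracer and compound were incubated 2 h, then given Nano-Glo substrate plus extracellular NanoLuc inhibitor for 3 min at room temperature.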

[3] = Permeability by lipid-PAMPA method (Pharmaron); type: in vitro ADME; details: PAMPA
Description: The permeability of compounds was measured using Lipid-PAMPA method by Pharmaron. Preparation of stock solutions: testosterone and methotrexate were used as control compounds in this assay. The stock solutions of positive controls were prepared in DMSO or acetonitrile at the concentration of 10 mM. Prepare a stock solution of compounds in DMSO at the concentration of 10 mM, and further dilute with PBS (pH 7.4). […]
Assay procedures: prepare a 1.8% solution (w/v) of lecithin in dodecane, and sonicate the mixture to ensure a complete dissolution. Carefully pipette 5 μL of the lecithin/dodecane mixture into each acceptor plate well (top compartment), avoiding pipette tip contact with the membrane. Immediately after the application of the artificial membrane (within 10 min), add 300 μL of PBS (pH 7.4) solution to each well of the acceptor plate. Add 300 μL of drug-containing solutions to each well of the donor plate (bottom compartment) in triplicate. Slowly and carefully place the acceptor plate into the donor plate, making sure the underside of the membrane is in contact with the drug-containing solutions in all wells. Replace the plate lid and incubate at 25 °C, 60 rpm for 16 h. After incubation, aliquots of 50 μL from each well of acceptor and donor plate are transferred into a 96-well plate. Add 450 μL of methanol (containing IS: 100 nM Alprazolam, 200 nM Caffeine, 100 nM Tolbutamide) into each well. Cover with plate lid. Vortex at 750 rpm for 100 s. Samples were centrifuged at 3220 × g for 20 min. Determine the compound concentrations by LC/MS/MS. The effective permeability (Pe), in units of centimeter per second, can be calculated using the following equation: LogPe=LogC×−Ln1−drugacceptor/drugequilibrium

[4] = target: BTK (Homo sapiens, UniProt Q06187); test: BTK degradation in MOLM-14 cells (western blot); type: cell-based; parameters: endogenous in cells; host or cells: MOLM-14; details: for BTK%: Figure 2c, DMSO = 100
Sequence of BTK (Q06187 whole entry): as the sequence (Q06187 whole entry, the tested form may be a part) above

[5] = test system: Rec-1; test: IC50 in MCL cell lines (Supplementary Table 2), Rec-1; details: for Cell Viability (%): Rec-1 cells, replicate wells

## CN(CCCNC(=O)CNc1cccc2c1C(=O)N(C1CCC(=O)NC1=O)C2=O)C(C)(C)C=C(C#N)C(=O)N1CCC[C@@H](n2nc(-c3ccc(Oc4ccccc4)cc3)c3c(N)ncnc32)C1 (stereo partly shown) [RC-1]
[1]; BTK_+DTT, compound concentration 0.00491 nM
  Signal: 2.20E-05 and 2.17E-05
[1]; BTK_+DTT, compound concentration 0.0147 nM
  Signal: 1.92E-05 and 1.81E-05
[1]; BTK_+DTT, compound concentration 0.0442 nM
  Signal: 2.14E-05 and 1.73E-05
[1]; BTK_+DTT, compound concentration 0.133 nM
  Signal: 2.05E-05 and 2.18E-05
[1]; BTK_+DTT, compound concentration 0.398 nM
  Signal: 2.41E-05 and 2.16E-05
[1]; BTK_+DTT, compound concentration 1.19 nM
  Signal: 1.65E-05 and 1.58E-05
[1]; BTK_+DTT, compound concentration 3.58 nM
  Signal: 1.59E-05 and 1.74E-05
[1]; BTK_+DTT, compound concentration 10.7 nM
  Signal: 1.27E-05 and 1.43E-05
[1]; BTK_+DTT, compound concentration 32.2 nM
  Signal: 8.15E-06 and 9.04E-06
[1]; BTK_+DTT, compound concentration 96.7 nM
  Signal: 2.36E-06 and 3.19E-06
[1]; BTK_+DTT, compound concentration 290 nM
  Signal: 6.97E-07 and 7.79E-07
[1]; BTK_-DTT, compound concentration 0.0152 nM
  Signal: 1.51E-05 and 1.47E-05
[1]; BTK_-DTT, compound concentration 0.0457 nM
  Signal: 1.49E-05 and 1.51E-05
[1]; BTK_-DTT, compound concentration 0.137 nM
  Signal: 1.65E-05 and 2.03E-05
[1]; BTK_-DTT, compound concentration 0.412 nM
  Signal: 1.54E-05 and 1.43E-05
[1]; BTK_-DTT, compound concentration 1.23 nM
  Signal: 1.12E-05 and 1.17E-05
[1]; BTK_-DTT, compound concentration 3.7 nM
  Signal: 1.02E-05 and 1.17E-05
[1]; BTK_-DTT, compound concentration 11.1 nM
  Signal: 6.96E-06 and 6.70E-06
[1]; BTK_-DTT, compound concentration 33.3 nM
  Signal: 2.36E-06 and 3.11E-06
[1]; BTK_-DTT, compound concentration 100 nM
  Signal: 5.28E-07 and 7.20E-07
[1]; BTK_-DTT, compound concentration 300 nM
  Signal: 2.64E-07 and 1.61E-07
[1]; full-length BTK, absence of DTT in the buffer, duplicates
  Kd: 0.0064 µM
[2]; 1.00E-05 M, triplicates
  NanoBRET(%): 21.6334% and 26.3618%
[2]; 1.60E-08 M, triplicates
  NanoBRET(%): 89.0253% and 93.1823% and 91.5749%
[2]; 3.20E-09 M, triplicates
  NanoBRET(%): 81.4353% and 98.6889%
[2]; 4.00E-07 M, triplicates
  NanoBRET(%): 23.5104% and 43.7578% and 36.9762%
[2]; 8.00E-08 M, triplicates
  NanoBRET(%): 72.3946% and 83.8988% and 65.1002%
[2]; HEK-293 cells, CRBN tracer 0.5 µM, triplicates, read-out: CRBN target engagement IC50,TE
  IC50: 0.25 µM
[2]; Kd (CRBN)/IC50,TE (CRBN)
  K′P,D (relative intracellular accumulation coefficient): 16.8
[3]; Recovery%
  recovery at 16 h, 10 μM: 25.1%
[3]; pH 7.4
  Papp at 16 h, 10 μM: < 0.00692 ×10⁻⁶ cm/s
[4]; Figure 2b, 8 nM, duplicates
  Quantification anti-BTK / anti-β-actin (BTK level vs DMSO): 63.6968 and 56.9893
[4]; Figure 2b, 40 nM, duplicates
  Quantification anti-BTK / anti-β-actin (BTK level vs DMSO): 41.0784 and 35.9122
[4]; Figure 2b, 200 nM, duplicates
  Quantification anti-BTK / anti-β-actin (BTK level vs DMSO): 29.8182 and 40.565
[4]; 1.6 nM, duplicates
  BTK%: 93.8522% and 87.3729%
[4]; 8 nM, duplicates
  BTK%: 68.8086% and 49.2324%
[4]; 200 nM, duplicates
  BTK%: 29.085% and 28.987%
[4]; 1000 nM, duplicates
  BTK%: 33.1562% and 45.5509%
[4]; Figure 2d, DMSO = 100 (mean)
  Quantification anti-BTK / anti-β-actin (BTK level vs DMSO): 23.0985
[4]; MOLM-14 cells, 200 nM, 24 h incubation
  Degradation at 200 nM (percentage of BTK degradation): 81%
[4]; MOLM-14 cells, 24 h, western blot, read-out: DC50 (compound concentration inducing 50% of protein degradation)
  DC50: 0.0066 µM
[5]; Rec-1, triplicates
  IC50: 4.1 µM
[5]; 1.25E-06 M
  Cell Viability (%): 86.4761% and 87.1335% and 88.5619%
[5]; 1.56E-07 M
  Cell Viability (%): 110.78% and 108.392% and 108.404%
[5]; 2.50E-06 M
  Cell Viability (%): 70.381% and 67.6766% and 67.9066%
[5]; 3.13E-07 M
  Cell Viability (%): 100.052% and 101.66% and 95.2827%
[5]; 5.00E-06 M
  Cell Viability (%): 39.6222% and 42.2011% and 40.0645%
[5]; 6.25E-07 M
  Cell Viability (%): 96.6812% and 94.3055% and 92.2914%
[5]; 7.81E-08 M
  Cell Viability (%): 102.045% and 105.031% and 106.253%
